The values below come from patent US20250340532A1, “HETEROCYCLIC COMPOUND CCR4 INHIBITOR AND USER THEREOF” (Xizang Haisco Pharmaceutical Co., Ltd., priority 2022, published 2025).

As a reminder, the IC50 is the concentration that gives 50% inhibition.

A value given as a limit tells only on which side of the number the result lay.

In the experiment the target is T1, CCR4 (Homo sapiens, UniProt P51679).
T1 construct: expressed in transfected cells; host or cells: HEK293
T1 sequence (P51679 1-360): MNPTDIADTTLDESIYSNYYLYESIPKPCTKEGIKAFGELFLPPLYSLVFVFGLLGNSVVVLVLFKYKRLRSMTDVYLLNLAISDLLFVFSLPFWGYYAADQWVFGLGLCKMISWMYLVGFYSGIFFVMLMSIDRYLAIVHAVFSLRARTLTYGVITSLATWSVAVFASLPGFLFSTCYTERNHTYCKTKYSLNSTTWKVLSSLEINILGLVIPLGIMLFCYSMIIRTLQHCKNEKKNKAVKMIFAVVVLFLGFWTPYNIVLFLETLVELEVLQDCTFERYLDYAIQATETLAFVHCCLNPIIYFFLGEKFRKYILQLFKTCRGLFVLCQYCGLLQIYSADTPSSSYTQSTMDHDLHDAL
Description: Calcium flow detected by FLIPR. It is filed as cell-based. The settings on record: CCR4/HEK293 cells, agonist CCL17, Fluo-4 calcium signal. As for the experimental part: CCR4/HEK293 cells were added to a 384-well cell culture plate (Greiner #781946) at a rate of 20 μL/well (20,000 cells/well) and incubated overnight in a 37° C., 5% CO2 incubator (Incubator, Thermo). On the second day, the 384-well cell culture plate was taken out of the incubator and the culture medium was removed; Then, 20 μL of detection buffer and 20 μL of 2X Fluo-4 Direct™ (Invitrogen, Cat #F10471) were added. Then, compounds were added at 10 μL/well (compounds were subjected to 4-fold serial dilution, and the highest detection concentration was 10 μM), and the cells were incubated in a 37° C., 5% CO2 incubator for 50 min, and then incubated at room temperature for 10 min. The 384-well culture plate was placed in FLIPR ([…]), 10 μL of 6X agonist CCL17 was added by using an automatic loader, and the fluorescence signal was read immediately. The mean and standard error (Mean±SEM) were statistically analyzed using Graphpad Prism software, and the IC50 value was calculated.
The experimental results are shown in Table 3, where A represents IC50<100 nm; B represents 100 nM≤IC50<500 nM, and C represents 500 nM≤IC50.
Regarding `C#Cc1cc(Cl)ccc1C(C)Nc1nc(N2CC(C3CCCN(C4CC(C)(C(=O)O)C4)C3)C2)nc(C)c1Cl` (single isomer, unassigned) [Compound 7 isomer 2], the IC50 is 100 to 500 nM. Under `Cc1nc(N2CC(C3CCCC(N4CC(C)(C(=O)O)C4)C3)C2)nc(NC(C)c2ccc(Cl)cc2Cl)c1Cl` (single isomer, unassigned) [Compound 8 isomer 1] stands 100 to 500 nM; under `Cc1nc(N2CC(C3CCCN(C4CC(C)(C(=O)O)C4)C3)C2)nc(NC(C)c2cc(Cl)sc2Cl)c1Cl` (single isomer, unassigned) [Compound 10 isomer 1], 100 to 500 nM; under `C#Cc1ccc(C(C)Nc2nc(N3CC([C@H]4CCCN([C@H]5C[C@](C)(C(=O)O)C5)C4)C3)nc(C)c2Cl)c(Cl)c1` (single isomer, unassigned) [Compound 11 isomer 1], under 100 nM.

Regarding `Cc1nc(N2CC(N3CCCC(N4CC(C)(C(=O)O)C4)C3)C2)nc(NC(C)c2ccc(Cl)cc2Cl)c1Cl` (single isomer, unassigned) [Compound 16 isomer 1], the half-maximal inhibitory concentration (IC50) was in the range of 100 to 500 nM. As to `Cc1nc(N2CC(N3CCCC(N4CC(C)(C(=O)O)C4)C3)C2)nc(NC(C)c2ccc(Cl)cc2Cl)c1Cl` (single isomer, unassigned) [Compound 16 isomer 2], the IC50 is under 100 nM. Regarding `Cc1nc(C#CC2CCCN(C3CC(C)(C(=O)O)C3)C2)nc(NC(C)c2ccc(Cl)cc2Cl)c1Cl` (single isomer, unassigned) [Compound 18 isomer 2], the half-maximal inhibitory concentration (IC50) is under 100 nM. Under `Cc1nc(C2CN(C3CCCN(C4CC(C)(C(=O)O)C4)C3)C2)nc(NC(C)c2ccc(Cl)cc2Cl)c1Cl` (single isomer, unassigned) [Compound 20 isomer 3] stands under 100 nM; under `C#Cc1ccc(C(C)Nc2nc(N3CC(C4CN(C5CC(C)(C(=O)O)C5)CCO4)C3)nc(C)c2Cl)c(Cl)c1` (single isomer, unassigned) [Compound 28 isomer 1], under 100 nM. Under `C[C@@H](Nc1cc(N2CC(C3CN(C4CC(C)(C(=O)O)C4)CCO3)C2)ncn1)c1ccc(Cl)cc1Cl` (single isomer, unassigned) [Compound 29 isomer 1] stands 100 to 500 nM. Under `C#Cc1cc(Cl)ccc1C(C)Nc1nc(N2CC(C3CN(C4CC(C)(C(=O)O)C4)CCO3)C2)nc(C)c1Cl` (single isomer, unassigned) [Compound 30 isomer 1] stands under 100 nM; under `CC(Nc1nc(N2CC(C3CN(C4CC(C)(C(=O)O)C4)CCO3)C2)ncc1Br)c1ccc(Cl)cc1Cl` (single isomer, unassigned) [Compound 37 isomer 1], under 100 nM. With `CC(Nc1nc(N2CC(C3CN(C4CC(C)(C(=O)O)C4)CCO3)C2)ncc1Br)c1ccc(Cl)cc1Cl` (single isomer, unassigned) [Compound 37 isomer 2], the IC50 fell in the range of 100 to 500 nM. In the case of `CC(Nc1nc(N2CC(C3CN(C4CC(C)(C(=O)O)C4)CCO3)C2)ncc1Cl)c1ccc(Cl)cc1Cl` (single isomer, unassigned) [Compound 42 isomer 1], the IC50 was under 100 nM. Under `C[C@@H](Nc1nc(N2CC(C3CN(C4CC(C)(C(=O)O)C4)CCO3)C2)nc2ccsc12)c1ccc(Cl)cc1Cl` (single isomer, unassigned) [Compound 54 isomer 1] stands 100 to 500 nM; under `CC(Nc1nc(N2CC(C3CN(C4CC(C)(C(=O)O)C4)CCO3)C2)c2ccccc2n1)c1ccc(Cl)cc1Cl` (single isomer, unassigned) [Compound 60 isomer 1], 100 to 500 nM. In the case of `CC(Nc1nc(N2CC(F)(C3CN(C4CC(C)(C(=O)O)C4)CCO3)C2)nc(C(F)(F)F)c1Cl)c1ccc(Cl)cc1Cl` (single isomer, unassigned) [Compound 65 isomer 3], the concentration for half-maximal inhibition (IC50) fell in the range of 100 to 500 nM. For the compound `CC(Nc1nc(N2CC(F)(C3CN(C4CC(C)(C(=O)O)C4)CCO3)C2)nc(C(F)F)c1Cl)c1ccc(Cl)cc1Cl` (single isomer, unassigned) [Compound 66 isomer 3], the half-inhibitory concentration (IC50) was in the range of 100 to 500 nM. Turning to `C[C@@H](Nc1nc(N2CC(C3CN(C4CC(C)(C(=O)O)C4)CCO3)C2)nc2ccccc12)c1ccc(Cl)cc1Cl` (single isomer, unassigned) [Compound 67 isomer 1], the IC50 is under 100 nM.

Consider `C[C@@H](Nc1nc2c(c(N3CC(C4CN(C5CC(C)(C(=O)O)C5)CCO4)C3)n1)CN(C)C2)c1ccc(Cl)cc1Cl` (single isomer, unassigned) [Compound 68 isomer 1], for which the IC50 lay within 100 to 500 nM. Under `Cc1nc(N2CC(C3CN(C4CC(C)(c5nn[nH]n5)C4)CCO3)C2)nc(NC(C)c2ccc(Cl)cc2Cl)c1Cl` (single isomer, unassigned) [Compound 71 isomer 1] stands 100 to 500 nM.

In the case of `CC(Nc1nc(N2CC(C3CN(C4CC(C)(C(=O)O)C4)CCC34CC4)C2)nc(C(F)F)c1Cl)c1ccc(Cl)cc1Cl` (single isomer, unassigned) [Compound 74 isomer 3], the IC50 is 100 to 500 nM.

`CC(Nc1cc(C#CC2CCCN(C3CC(C)(C(=O)O)C3)C2)ccc1Cl)c1ccc(Cl)cc1Cl` (single isomer, unassigned) [Compound 75 isomer 2]: the concentration for half-maximal inhibition (IC50) lay within 100 to 500 nM. Under `C[C@@H](Nc1nc(N2CC(C3CN(C4CC(C)(C(=O)O)C4)CCO3)C2)nc(C(F)F)c1Cl)c1ccc(Cl)cc1Cl` (single isomer, unassigned) [Compound 77 isomer 2] stands under 100 nM; under `Cc1nc(N2CC(C3CN(C4CC(c5nn[nH]n5)C4)CCO3)C2)nc(NC(C)c2ccc(Cl)cc2Cl)c1Cl` (single isomer, unassigned) [Compound 79 isomer 1], 100 to 500 nM. On to `Cc1nc(N2CC(C3CN(C4CC(c5nn[nH]n5)C4)CCO3)C2)nc(NC(C)c2ccc(Cl)cc2Cl)c1Cl` (single isomer, unassigned) [Compound 79 isomer 2], for which the IC50 is 100 to 500 nM. For the compound `Cc1nc(N2CC(C3CN(CCO)CCN3C)C2)nc(NC(C)c2ccc(Cl)cc2Cl)c1Cl` (single isomer, unassigned) [Compound 80 isomer 1], the IC50 was under 100 nM. Regarding `Cc1nc(N2CC(C3CN(C4CC(C)(C(=O)O)C4)CCN3C)C2)nc(NC(C)c2ccc(Cl)cc2Cl)c1Cl` (single isomer, unassigned) [Compound 81 isomer 1], the IC50 fell in the range of 100 to 500 nM. Take `Cc1nc(N2CC(F)(C3CN(C4CC(C(=O)O)C4)CCO3)C2)nc(N[C@H](C)c2ccc(Cl)cc2Cl)c1Cl` (single isomer, unassigned) [Compound 84 isomer 1]: the half-inhibitory concentration (IC50) is 100 to 500 nM. On to `CC(Nc1nc(N2CC(C3C=CCN(C4CC(C)(C(=O)O)C4)C3)C2)nc(C(F)F)c1Cl)c1ccc(Cl)cc1Cl` (single isomer, unassigned) [Compound 85 isomer 1], for which the IC50 is under 100 nM.

In the case of `CC(Nc1cc(N2CC(F)(C3CN(C4CC(C)(C(=O)O)C4)CCO3)C2)ccc1Cl)c1ccc(Cl)cc1Cl` (single isomer, unassigned) [Compound 86 isomer 1], the 50% inhibitory concentration (IC50) was under 100 nM. Under `CC(Nc1nc(N2CC(F)(C3CN(C4CC(C)(C(=O)O)C4)CCO3)C2)ncc1Cl)c1ccc(Cl)cc1Cl` (single isomer, unassigned) [Compound 89 isomer 1] stands under 100 nM.

Take `Cc1nc(N2CCC(C3CN(C4CC(C)(C(=O)O)C4)CCN3C)CC2)nc(NC(C)c2ccc(Cl)cc2Cl)c1Cl` (single isomer, unassigned) [Compound 105 isomer 3]: the IC50 is under 100 nM.
